The values that follow come from patent US20250381157A1, “ANTIMICROBIAL COMPOUNDS” (priority 2022, published 2025).

Read-outs that look alike come from different tables or passages of the source. Bounds are passed on as bounds.

Data set [1] relates to CAMP gene (encoding human cathelicidin). As to the kind of experiment: Induction test: ProLL-37-luciferase fusion protein expression in HT-29 CampLuc MN8 reporter cell line. Particulars: after 24h; luminescence relative to untreated cells. In kind it is cell-based. On the procedure:
FIG. 2: Induction test. […] Statistical analysis was performed by comparison of each compound-treatment conditions to the corresponding vehicle control using two-way ANOVA with Dunnett post-hoc test. Only significant changes were indicated, ** p<0.01, *** p<0.001, **** p<0.0001.
MN8CampLuc cells were handled according to Nylén et. al. with the following exception when predifferention of cells were performed before induction: […]

Data set [2] concerns Enterotoxigenic Escherichia coli (ETEC) (ATCC ® 35401 ™, H10407). Type of data set: in vivo, mouse. Particulars: for Clinical observation (Mean Score) Hunched Posture / Clinical observation (Mean Score) Rough coat / Clinical observation (Mean Score) hyperpnea: 1 mg/kg PO q12h 9 days, 0=absent 1=present. On the procedure: FIG. 3: Schematic protocol for neutropenia mouse model
A schematic of the experimental model is depicted in FIG. 3.
That experiment was performed in the presence of cyclophosphamide, which is known to cause febrile neutropenia due to translocation of bacteria to vital organs.

Data set [3] in a line: in vivo. Particulars: mouse, po, 7 Days PO once daily MTD - mouse.
Data set [4] is described as follows: Dose escalation toxicity and MTD in mouse.
The nature of data set [5]: Plasma stability Mouse. Type of data set: in vitro ADME.
The subject of data set [6] is Caco-2 cells. As to the kind of experiment: Caco-2 cell study (permeability, efflux). Particulars: for Active efflux: Caco-2. In kind it is in vitro ADME. From the text:
Caco-2 cells are used as a model of the intestinal epithelial barrier.
(Caco-2 cells form a polarised layer with tight junctions and transporters.)

Data set [7] can be described thus: Rat pharmacokinetics (IV, PO). Type of data set: in vivo. Particulars: for half-life / bioavailability: in vivo; for bioavailability: oral.
A short description of data set [8]: Plasma stability Rat. Type of data set: in vitro ADME.
Data set [9] in a line: Stability SGD, SIF w. Enzymes. In kind it is in vitro ADME.
[10] abbreviates: 1 mg/kg, PO, twice daily(q12h), 9 days.
The mark [11] stands for this setting: individual animals, 1 mg/kg, PO, twice daily(q12h), 9 days.
[12] abbreviates: PO, read-out: Elimination T½ (min) PO - rat.
Setting [13] is: intravenous, PIV, read-out: Elimination T½ (min) PIV - rat.

In the case of `C#CCOCC(=O)N(C)Cc1ccc(C(=O)Nc2ccccc2N)cc1` [Compound 2.1, N-(2-aminophenyl)-4-[(methyl{[(prop-2-yn-1-yl)oxy]acetyl}amino)methyl]benzamide], in data set [1], the “expression of ProLL-37-luciferase fusion protein” value is listed as “induced expression”.
Still for that read-out and setting: the result for `CCC(=O)NCCOCC(=O)N(C)Cc1ccc(C(=O)Nc2ccccc2N)cc1` [Compound 2.2, N-(2-aminophenyl)-4-{[N-methyl-2-(2-propanamidoethoxy)acetamido]methyl}benzamide] reads “induced expression”; that for `C#CCCCC(=O)Oc1ccc(C(=O)Nc2ccccc2N)cc1` [Compound 2.3, 4-[(2-aminophenyl)carbamoyl]phenyl hex-5-ynoate], “induced expression”.
In the case of `Nc1ccccc1NC(=O)c1ccc(CNC(=O)OCc2cccnc2)cc1` [Entinostat, Pyridin-3-ylmethyl (4-((2-aminophenyl)-carbamoyl)benzyl)carbamate, reference compound], the “Body weights (Final Day) (Mean ± SD)” value in data set [2] (setting [10]) is given as 26.5 ± 1.58. The “Log10 CFU/g [Mean ± SD] Blood” value in data set [2] (setting [10]) is given as “BLOQ”. In data set [2] (setting [10]), the “Log10 CFU/g [Mean ± SD] Kidneys” value is “BLOQ”. Further, the “Log10 CFU/g [Mean ± SD] Liver” value in data set [2] (setting [10]) is given as “BLOQ”. Besides, in data set [2] (setting [10]), the “Log10 CFU/g [Mean ± SD] Spleen” value is “BLOQ”. Besides, the “Clinical observation (Mean Score) Hunched Posture” value in [2] (Day (0)), in data set [2] (Day (1)), in data set [2] (Day (2)), in data set [2] (Day (3)), in data set [2] (Day (4)) and in [2] (Day (5)) was 0.0 throughout. Besides, the “Clinical observation (Mean Score) Hunched Posture” value in data set [2] (Day (6)), in [2] (Day (7)), in [2] (Day (−1)) and in data set [2] (Day (−2)) was 0.0 in each case. In addition, the “Clinical observation (Mean Score) Rough coat” value in [2] (Day (0)) was found to be 0.0; in data set [2] (Day (1)) it was 0.0; in data set [2] (Day (2)) it was 0.0; in [2] (Day (3)) it was 0.0; in data set [2] (Day (4)) it was 0.0; in data set [2] (Day (5)) it was 0.1. Also, the “Clinical observation (Mean Score) Rough coat” value in data set [2] (Day (6)) was found to be 0.1; in data set [2] (Day (7)) it was 0.2; in data set [2] (Day (−1)) it was 0.0; in data set [2] (Day (−2)), 0.0. The “Clinical observation (Mean Score) hyperpnea” value in data set [2] (Day (0)), in data set [2] (Day (1)), in data set [2] (Day (2)), in [2] (Day (3)), in data set [2] (Day (4)) and in [2] (Day (5)) was 0.0 each time. Besides, the “Clinical observation (Mean Score) hyperpnea” value in [2] (Day (6)), in [2] (Day (7)), in data set [2] (Day (−1)) and in data set [2] (Day (−2)) was 0.0 in each case. For the same compound, the “Bacteria in treated animals” value in data set [2] (day 7, compound 1 at 50 mg/kg) is given as “BLOQ”. The “Kidney -Raw data on Vancomycin (32 μg/ml) plates” value in data set [2] (setting [11]) was “BLOQ”. Further, the “Liver-Raw data on Vancomycin (32 μg/ml) plates” value in data set [2] (setting [11]) is “BLOQ”. In data set [2] (setting [11]), the “Spleen -Raw data on Vancomycin (32 μg/ml) plates” value is recorded as “BLOQ”. The “Blood -Raw data on Vancomycin (32 μg/ml) plates - on day 7 PI” value in [2] (individual animals, day 7 PI, 1 mg/kg, PO, twice daily(q12h), 9 days) is listed as “BLOQ”. In addition, the “clinical condition of animals” value in [2] (treated groups) was “apparently normal”.
The bioavailability is the share of a dose that reaches the circulation, judged against a reference dose that is usually intravenous. A high value points to good availability. In data set [3], `Nc1ccccc1NC(=O)c1ccc(NC(=O)COCc2cn(CCO)nn2)cc1` [HO53] showed an MTD at 7 days of more than 50 mg/kg. Also, in data set [4], the “Dose Esc. Tox mouse PO” value is listed as more than 100 mg/kg and the “Dose Esc. Tox mouse iv” value is given as more than 100 mg/kg. In data set [5], the “Plasma stability Mouse” value is reported as “Low”. Further, in data set [6], the “Caco-2 Permeability A-B dir.” value was “Low” and the Active efflux entry is “Yes”. In data set [7], the “C_max IV - rat” value is 21 µM, the “V-d IV - rat” value came to 1.7 L/kg and the bioavailability was determined as 3%. Moreover, in [7] (PO), the “C_max PO - rat” value is 0.09 µM. Further, the half-life in data set [7] (setting [12]) came to 35 min. For the same compound, in data set [7] (setting [13]), the half-life worked out at 126 min. Moreover, the “Plasma stability Rat” value in data set [8] is “High”. The “Stability SGD, SIF w. Enzymes” value in [9] was “High”.
Regarding `Nc1ccccc1NC(=O)c1ccc(OCc2cn(CCO)nn2)cc1` [HO56], the MTD at 7 days in [3] is more than 50 mg/kg. In addition, in [4], the “Dose Esc. Tox mouse PO” value is on record as more than 200 mg/kg and the “Dose Esc. Tox mouse iv” value was 10 mg/kg. For the same compound, the “Plasma stability Mouse” value in data set [5] is “High”. For the same compound, in data set [6], the “Caco-2 Permeability A-B dir.” value was “Low” and the Active efflux result was “Yes”. In addition, in data set [7], the “C_max IV - rat” value was 26 µM, the “V-d IV - rat” value was determined as 3.07 L/kg and the bioavailability came out at 16%. Further, in [7] (PO), the “C_max PO - rat” value is 1.2 µM. Moreover, the half-life in [7] (setting [12]) is 132 min. In addition, the half-life in [7] (setting [13]) was determined as 94 min. For the same compound, in data set [8], the “Plasma stability Rat” value was “High”. Further, the “Stability SGD, SIF w. Enzymes” value in data set [9] was “High”.
